In US20180214519A1, “COMBINATION THERAPIES FOR MODULATION OF HISTONE METHYL MODIFYING ENZYMES” (Constellation Pharmaceuticals, Inc., priority 2015, published 2018):
Read-outs that look alike come from different tables or passages of the source.

What was measured:
KARPAS-422 cells = test: Cell viability assay (Cell Titer Glo) in KARPAS-422 cells; type: cell-based; details: EZH2 mutant-containing DLBCL cell line KARPAS-422; viability monitored at day 4, day 8 and day 12
Experimental: For suspension cell lines, cells were seeded at their pre-determined optimal seeding density in a 96 well dish in a volume of 70-90 μl, depending on the number of compounds under investigation in a single assay (i.e. single agent assay versus combination assay). A 10× stock solution of the highest desired concentration of the compound of interest was made in growth media. In parallel, a solution containing the same % of diluent as the 10× compound concentration was made for each compound under investigation, also in growth media. Compound was diluted serially in the diluent/growth media solution, and 10 μl of 10× drug was added to the relevant wells of the 96 well dish containing cells. […] Cells were cultured in the presence of compound for 4 days, at which point 100 μl growth media was added, cells were triturated, and the cell density of the diluent only control treatment was determined. A split ratio was determined based on this density, such that the new cell density of diluent treated cells after splitting would match the original cell density from day 0. […] 50 μl CTG reagent was added to all wells containing cells that remained in the original 96 well dish, followed by a 30 min incubation on an orbital shaker, before a luminescence reading was obtained on a Perkin-Elmer Envision. […]

PC9 cells = test: RNA-sequencing and gene set enrichment analysis in PC9 cells; type: cell-based; details: 2.5 μM pre-treatment 8 days then 1 μM erlotinib; compared to DMSO pre-treated/erlotinib acutely treated cells
Source text: For RNA sequencing (RNA-seq) experiments, RNA was submitted to Ocean Ridge Biosciences (Palm Beach Gardens, Fla.) for quality control, library preparation and sequencing. Samples were processed as per the vendor's protocols (http://www.oceanridgebio.com/rna-sequencing.html). Data was processed as previously described (ibid).
Experimental gene lists pre-ranked by differential expression were compared against gene sets in the Molecular Signature Database (MSigDB), v4.0 (http://www.broadinstitute.org/gsea/msigdb/index.jsp). GSEA analyses were run using the weighted scoring option, meandiv normalization, and excluding MSigDB gene sets with more than 1500 or fewer than 15 member genes.
For transcriptomic analysis of PC9 cells, cells were pretreated for 8 days with 2.5 μM CPI-360, with one splitting event and reapplication of fresh drug at day 4. On day 8, without splitting, 0.1% (v/v) DMSO or 1 μM erlotinib was added directly to each vessel, mixed, and incubated for 6 or 24 hours before harvesting. Cells were harvested by aspiration of media, and direct application of buffer RLT to the cell culture plate. RNA was purified as described above.
PC9 cells were pre-treated with 2.5 μM Inhbitor 2 or DMSO for 8 days, with splitting, re-seeding and compound re-fresh at day 4. […] RNA was extracted, and analyzed via RNA-sequencing, then gene set enrichment analysis using msigdb v4.0 (all categories). […]

[1] = pre-treatment 4 days, then 1 μM erlotinib, compared to erlotinib only treated cells

Experimental for PC9 NucRed cells: The non-small cell lung cancer (NSCLC) cell line PC9 was transduced with virus expressing nuclear-restricted RFP (NucRed, Essen Biosciences NucLight), and selected with zeocin (Invivogen). […] Every 3-4 days, media was removed, cells were washed with PBS, and fresh growth media containing 1 μM erlotinib was added. DTPs are defined as cells maintaining red fluorescence, while remaining in a non-proliferative state. After a period of time, DTPs regain proliferative capacity, at which point they are deemed drug tolerant expanded persisters (DTEPs) (ibid). Cells were maintained in 12 well dishes in an Incucyte ZOOM (Essen Biosciences) positioned in a humidified tissue culture incubator for the length of each experiment. Whole well phase and fluorescent images were obtained every 12 hours by the Incucyte ZOOM, and cell number quantified using an automated algorithm defined from a training set of images that identifies red fluorescent signal (positive signal pseudocolored blue in figures). In each experiment, relative cell number is quantitated by dividing cell number at each time point by the initial cell number for each well. In some instances, PC9 NucRed cells were pretreated with EZH2 inhibitors, before counting and reseeding at 5×10^4 cells per well for DTP generation assays as described above.
48 hours later, 1 μM erlotinib was added to the cells, and images were obtained every 12 hours via the Incucyte imaging system. […] FIG. 15c is a schematic of experimental design for FIG. 15d and FIG. 15e PC9 NucRed cells were pre-treated with Inhbitor 1 as in FIG. 15a and FIG. 15b, however after 48 hours, were treated with 0.1% DMSO instead of erlotinib.
Media with fresh compounds was changed every 3-4 days. Phase and fluorescent images obtained every 12 hours with Incucyte imaging platform. Cell number determined by red fluorescent nuclei detection by Incucyte.

CCS(=O)(=O)N1CCC([C@@H](C)n2c(C)c(C(=O)NCc3c(OC)cc(C)[nH]c3=O)c3ccccc32)CC1 [Inhibitor 1]
reduction in cell number (PC9 NucRed cells; 5 μM pre-treatment followed by acute 1 μM erlotinib, compared to DMSO pretreatment, acute erlotinib treatment): 80% | reduction in cell number (PC9 NucRed cells; 5 μM pretreatment for 4 days, then acute DMSO treatment, compared to DMSO pretreated cells): 15% | drug tolerant persister (DTP) cells remaining after initial erlotinib treatment (PC9 NucRed cells; [1]): a reduction in the number of drug tolerant persister (DTP) cells | initiation of cell growth inhibition (PC9 NucRed cells; [1]): faster initiation of cell growth inhibition | outgrowth of erlotinib-resistant cells (PC9 NucRed cells; [1]): delayed/reduced outgrowth of erlotinib-resistant cells | sensitivity of cell viability to treatment (KARPAS-422 cells): temporal sensitivity

COc1cc(C)[nH]c(=O)c1CNC(=O)c1c(C)n([C@H](C)C2CCOCC2)c2ccccc12 [Inhibitor 2]
altered pathways (gene set enrichment analysis) (PC9 cells): 3 out of the top 5 altered pathways are interferon-related pathways

C#Cc1cccc(Nc2ncnc3cc(OCCOC)c(OCCOC)cc23)c1 [erlotinib, reference compound]
GI90 dose (PC9 NucRed cells; PC9 cells): 1 µM
